These results are taken from patent US20130303507A1 (Novartis AG, priority 2011, published 2013).

Several values for one entry are separate records, joined by “and”; a condition that tells them apart may be missing. Identical values can stand only once.

The target of assay [1] is T1, Cdk9/cyclinT1 (Homo sapiens, UniProt P50750). Put plainly: Cdk9/cyclinT1 Alpha Screen protocol. The assay is classed as biochemical. Also noted: Full length wild type Cdk9/cyclin T1 is purchased from Invitrogen; purchased Invitrogen PV4131. As to conditions: individual determinations, read-out: CDK9_cyclinT1_AS2_IC50. How it is done: Cdk9/cyclinT1 Alpha Screen Protocol
T1 sequence (P50750 whole entry): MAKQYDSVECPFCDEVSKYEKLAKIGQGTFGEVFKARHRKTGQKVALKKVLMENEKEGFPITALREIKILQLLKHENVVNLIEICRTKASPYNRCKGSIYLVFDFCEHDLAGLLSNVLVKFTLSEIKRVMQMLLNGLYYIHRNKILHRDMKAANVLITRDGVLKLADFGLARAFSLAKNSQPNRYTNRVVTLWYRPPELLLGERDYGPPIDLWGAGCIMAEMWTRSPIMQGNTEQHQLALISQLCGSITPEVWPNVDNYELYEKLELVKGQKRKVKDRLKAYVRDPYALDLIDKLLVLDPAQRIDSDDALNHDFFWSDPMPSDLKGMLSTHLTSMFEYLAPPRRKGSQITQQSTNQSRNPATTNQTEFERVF
T1 sequence (O60563 whole entry partner): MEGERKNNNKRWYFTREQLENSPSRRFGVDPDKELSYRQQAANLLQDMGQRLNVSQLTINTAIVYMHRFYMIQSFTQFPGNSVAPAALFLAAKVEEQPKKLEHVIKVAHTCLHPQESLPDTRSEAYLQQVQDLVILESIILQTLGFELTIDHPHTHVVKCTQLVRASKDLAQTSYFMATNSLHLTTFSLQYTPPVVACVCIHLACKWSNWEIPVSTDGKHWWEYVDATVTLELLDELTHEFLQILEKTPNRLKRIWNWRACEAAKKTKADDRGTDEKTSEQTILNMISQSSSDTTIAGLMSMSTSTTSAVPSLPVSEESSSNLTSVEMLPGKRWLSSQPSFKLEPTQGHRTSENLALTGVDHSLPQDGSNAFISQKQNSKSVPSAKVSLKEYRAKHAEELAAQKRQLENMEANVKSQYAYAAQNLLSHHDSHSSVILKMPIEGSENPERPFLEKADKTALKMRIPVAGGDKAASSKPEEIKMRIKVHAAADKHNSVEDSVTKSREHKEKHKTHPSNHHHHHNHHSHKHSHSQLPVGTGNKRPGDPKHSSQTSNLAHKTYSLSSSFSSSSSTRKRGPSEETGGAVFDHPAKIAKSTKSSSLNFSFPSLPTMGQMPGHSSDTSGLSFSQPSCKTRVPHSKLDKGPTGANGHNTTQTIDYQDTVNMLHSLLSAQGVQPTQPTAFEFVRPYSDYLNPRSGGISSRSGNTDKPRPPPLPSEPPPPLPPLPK
Full length wild type Cdk9/cyclin T1 is purchased from Invitrogen, cat#PV4131. […] The cdk7tide peptide substrate, biotin-[…] -OH, is a custom synthesis purchased from the Tufts University Core Facility. The final concentration of cdk7tide peptide substrate is 200 nM. […] Phospho-Rpb1 CTD (ser2/5) substrate antibody is purchased from Cell Signaling Technology. The final concentration of antibody is 0.67 ug/ml. The Alpha Screen Protein A detection kit containing donor and acceptor beads is purchased from PerkinElmer Life Sciences. The final concentration of both donor and acceptor beads is 15 ug/ml. Alpha Screen is used for detection. […] The biotinylated-cdk7tide peptide substrate is bound to the streptavidin coated donor bead. The antibody is bound to the protein A coated acceptor bead. The antibody will bind to the phosphorylated form of the biotinylated-cdk7tide peptide substrate, bringing the donor and acceptor beads into close proximity. Laser irradiation of the donor bead at 680 nm generates a flow of short-lived singlet oxygen molecules. When the donor and acceptor beads are in close proximity, the reactive oxygen generated by the irradiation of the donor beads initiates a luminescence/fluorescence cascade in the acceptor beads. This process leads to a highly amplified signal with output in the 530-620 nm range. Assays are carried out in 50 mM Hepes, pH=7.5, 10 mM MgCl2, 0.1% Bovine Serum Albumin, 0.01% Tween-20, 1 mM Dithiothreitol, 2.5% Dimethyl Sulfoxide. Stop and detection steps are combined using 50 mM Hepes, pH=7.5, 18 mM EDTA, 0.1% Bovine Serum Albumin, 0.01% Tween-20.

The target of assay [2] is T1, Cdk9/cyclinT1. Put plainly: Cdk9/cyclinT1 IMAP protocol (fluorescence polarization). Particulars: IC-50, CDK9; lower limit of assay 0.0005 micromolar.

Take `COCC(C)N[C@H]1CC[C@@H](Nc2cc(-c3cccc(NCC4(C#N)CCOCC4)n3)c(Cl)cn2)CC1` (stereo partly drawn) [Compound 603]: the IC50 at Cdk9/cyclinT1 [1] (neutral species) was 5.6 nM. On to `COC[C@@H](C)NC[C@H]1CC[C@H](Nc2cc(-c3cccc(NCC4(C#N)CCOCC4)n3)c(Cl)cn2)CC1` [Compound 532], for which the IC50 on Cdk9/cyclinT1 [1] (TFA salt) stood at 0.703 nM. On to `COCCNC[C@H]1CC[C@H](Nc2cc(-c3cccc(NCC4(C#N)CCOCC4)n3)c(Cl)cn2)CC1` [Compound 540], for which, at Cdk9/cyclinT1 [1] (neutral species), the IC50 is 0.596 nM and 0.536 nM.

As for `C[C@](O)(CN[C@H]1CC[C@H](Nc2cc(-c3cccc(NCC4(C#N)CCOCC4)n3)c(Cl)cn2)CC1)C(F)(F)F` [Compound 578], the IC50 at Cdk9/cyclinT1 [1] (TFA salt) is 0.497 nM and 0.311 nM.

For the compound `COC[C@H](C)N[C@H]1CC[C@H](Nc2cc(-c3cccc(NCC4(C#N)CCOCC4)n3)c(F)cn2)CC1` [Compound 520], on Cdk9/cyclinT1 [1] (TFA salt), the IC50 is 0.458 nM and 0.413 nM. As to `N#CC1(COc2cncc(-c3cc(N[C@H]4CC[C@H](N)CC4)ncc3F)n2)CCOCC1` [Compound 534], the IC50 at Cdk9/cyclinT1 [1] (TFA salt) came out at 0.471 nM. In the case of `N#CC1(CNc2cccc(-c3cc(N[C@H]4CC[C@H](NCCCO)CC4)ncc3Cl)n2)CCOCC1` [Compound 571], at Cdk9/cyclinT1 [1] (neutral species), the IC50 worked out at 0.397 nM. In the case of `COC[C@H](C)N[C@H]1CC[C@H](Nc2cc(-c3cccc(NCC4(C#N)CC4)n3)c(F)cn2)CC1` [Compound 587], at Cdk9/cyclinT1 [1] (neutral species), the IC50 was found to be 1 nM. Take `N#CC1(CNc2cccc(-c3cc(N[C@H]4CC[C@H](NC[C@H](O)CF)CC4)ncc3Cl)n2)CCOCC1` [Compound 542]: the IC50 at Cdk9/cyclinT1 [1] (TFA salt) worked out at 0.168 nM. As for `C[C@H](CO)N[C@H]1CC[C@H](Nc2cc(-c3cccc(NCC4(C#N)CCOCC4)n3)c(Cl)cn2)CC1` [Compound 584], on Cdk9/cyclinT1 [1] (neutral species), the IC50 was under 1 nM. Regarding `C[C@H](CO)N[C@H]1CC[C@@H](Nc2cc(-c3cncc(OCC4(C#N)CCOCC4)n3)c(Cl)cn2)CC1` [Compound 591], on Cdk9/cyclinT1 [1] (neutral species), the IC50 is under 1 nM. On the same count and under the same terms, the value for `CC(C)(O)CN[C@H]1CC[C@H](Nc2cc(-c3cccc(NCC4(C#N)CCOCC4)n3)c(Cl)cn2)CC1` [Compound 521] was 0.475 nM. With `COC[C@H](C)N[C@H]1CC[C@H](Nc2cc(-c3cccc(NCC4(C#N)CC4)n3)c(F)cn2)CC1` [Compound 566], the IC50 at Cdk9/cyclinT1 [1] (TFA salt) is 0.787 nM and 0.846 nM.

In turn, `CCOC(=O)C(C)(C)NC[C@H]1CC[C@H](Nc2cc(-c3cccc(NCC4(C#N)CCOCC4)n3)c(Cl)cn2)CC1` [Compound 425, ethyl 2-(((trans-4-((5′-chloro-6-(((4-cyanotetrahydro-2H-pyran-4-yl)methyl)amino)-[2,4′-bipyridin]-2′-yl)amino)cyclohexyl)methyl)amino)-2-methylpropanoate] returned an IC50 against Cdk9/cyclinT1 [2] of 1.1 nM. `N#CC1(CNc2cccc(-c3cc(N[C@H]4CCCc5ccccc54)ncc3Cl)n2)CCOCC1` [Compound 501, (S)-4-(((5′-chloro-2′-((1,2,3,4-tetrahydronaphthalen-1-yl)amino)-[2,4′-bipyridin]-6-yl)amino)methyl)tetrahydro-2H-pyran-4-carbonitrile] registered an IC50 against Cdk9/cyclinT1 [2] of 480 nM. At Cdk9/cyclinT1 [2], `N#CC1(CNc2cccc(-c3cc(N[C@H]4CC[C@H](NCC5CCCO5)CC4)ncc3Cl)n2)CCOCC1` (stereo partly drawn) [Compound 468, 4-(((5′-chloro-2′-((trans-4-(((tetrahydrofuran-2-yl)methyl)amino)cyclohexyl)amino)-[2,4′-bipyridin]-6-yl)amino)methyl)tetrahydro-2H-pyran-4-carbonitrile] yielded an IC50 of under 0.5 nM. On to `COCCN[C@H]1CC[C@H](Nc2cc(-c3cccc(NCC4(C#N)CC4)n3)c(F)cn2)CC1` [Compound 488, 1-(((5′-fluoro-2′-((trans-4-((2-methoxyethyl)amino)cyclohexyl)amino)-[2,4′-bipyridin]-6-yl)amino)methyl)cyclopropane-carbonitrile], for which the IC50 against Cdk9/cyclinT1 [2] was under 0.5 nM. For `CC(C)(CO)N[C@H]1CC[C@H](Nc2cc(-c3cccc(NCC4(C#N)CCOCC4)n3)c(Cl)cn2)CC1` [Compound 453, 4-(((5′-chloro-2′-((trans-4-((1-hydroxy-2-methylpropan-2-yl)amino)cyclohexyl)amino)-[2,4′-bipyridin]-6-yl)amino)methyl)tetrahydro-2H-pyran-4-carbonitrile], the IC50 against Cdk9/cyclinT1 [2] was under 0.5 nM. Take `COC[C@@H](C)N[C@H]1CC[C@H](Nc2cc(-c3cccc(NCC4(C#N)CCOCC4)n3)c(F)cn2)CC1` [Compound 471, 4-(((5′-fluoro-2′-((trans-4-(((R)-1-methoxypropan-2-yl)amino)cyclohexyl)amino)-[2,4′-bipyridin]-6-yl)amino)methyl)tetrahydro-2H-pyran-4-carbonitrile]: the IC50 against Cdk9/cyclinT1 [2] is under 0.5 nM. `N#CC1(CNc2cccc(-c3cc(N[C@H]4CC[C@H](NCCF)CC4)ncc3Cl)n2)CCOCC1` [Compound 424, 4-(((5′-chloro-2′-((trans-4-((2-fluoroethyl)amino)cyclohexyl)amino)-[2,4′-bipyridin]-6-yl)amino)methyl)tetrahydro-2H-pyran-4-carbonitrile]: the IC50 at Cdk9/cyclinT1 [2] is under 0.5 nM.

Take `N#CC1(CNc2cccc(-c3cc(N[C@H]4CC[C@H](N[C@@H]5CCOC5)CC4)ncc3Cl)n2)CCOCC1` [Compound 470, 4-(((5′-chloro-2′-((trans-4-(((R)-tetrahydrofuran-3-yl)amino)cyclohexyl)amino)-[2,4′-bipyridin]-6-yl)amino)methyl)tetrahydro-2H-pyran-4-carbonitrile]: at Cdk9/cyclinT1 [2], the IC50 was under 0.5 nM. On to `CCOC(=O)C(C)(C)N[C@H]1CC[C@H](Nc2cc(-c3cccc(NCC4(C#N)CCOCC4)n3)c(Cl)cn2)CC1` [Compound 452, ethyl 2-((trans-4-((5′-chloro-6-(((4-cyanotetrahydro-2H-pyran-4-yl)methyl)amino)-[2,4′-bipyridin]-2′-yl)amino)cyclohexyl)amino)-2-methylpropanoate], for which the IC50 against Cdk9/cyclinT1 [2] was 0.7 nM. On Cdk9/cyclinT1 [2], `CS(=O)(=O)CCN[C@H]1CC[C@H](Nc2cc(-c3cccc(NCC4(C#N)CCOCC4)n3)c(Cl)cn2)CC1` [Compound 422, 4-(((5′-chloro-2′-((trans-4-((2-(methylsulfonyl)ethyl)amino)cyclohexyl)amino)-[2,4′-bipyridin]-6-yl)amino)methyl)tetrahydro-2H-pyran-4-carbonitrile] returned an IC50 of under 0.5 nM.

The compound `N#CC1(CNc2cccc(-c3cc(N[C@H]4CC[C@H](CNc5cc(Cl)ncn5)CC4)ncc3Cl)n2)CCOCC1` [Compound 505, 4-(((5′-chloro-2′-((trans-4-(((6-chloropyrimidin-4-yl)amino)methyl)cyclohexyl)amino)-[2,4′-bipyridin]-6-yl)amino)methyl)tetrahydro-2H-pyran-4-carbonitrile] registered an IC50 against Cdk9/cyclinT1 [2] of at most 0.5 nM.

In the case of `C[C@H]1COCCN1[C@H]1CC[C@H](Nc2cc(-c3cccc(NCC4(C#N)CCOCC4)n3)c(Cl)cn2)CC1` [Compound 502, 4-((5′-chloro-2′-(trans-4-((S)-3-methylmorpholino)cyclohexyl-amino)-2,4′-bipyridin-6-ylamino)methyl)tetrahydro-2H-pyran-4-carbonitrile], on Cdk9/cyclinT1 [2], the IC50 was 2.9 nM. Same read-out and setting: the value for `COC[C@@H](C)N[C@H]1CC[C@H](Nc2cc(-c3nc(NCC4(C#N)CCOCC4)cnc3Cl)c(Cl)cn2)CC1` [Compound 506, 4-(((5-chloro-6-(5-chloro-2-((trans-4-(((R)-1-methoxypropan-2-yl)amino)cyclohexyl)amino)pyridin-4-yl)pyrazin-2-yl)amino)methyl)tetrahydro-2H-pyran-4-carbonitrile] was at most 0.5 nM.

Compound `CN(C)C(=O)CN(CC(=O)N(C)C)[C@H]1CC[C@H](Nc2cc(-c3cccc(NCC4(C#N)CCOCC4)n3)c(Cl)cn2)CC1` [Compound 421, 2,2′-((trans-4-((5′-chloro-6-(((4-cyanotetrahydro-2H-pyran-4-yl)methyl)amino)-[2,4′-bipyridin]-2′-yl)amino)cyclohexyl)azanediyl) bis(N,N-dimethylacetamide)] gave an IC50 at Cdk9/cyclinT1 [2] of 2.7 nM. On Cdk9/cyclinT1 [2], `COCCN[C@H]1CC[C@H](Nc2cc(-c3nc(NCC4(C#N)CCOCC4)cnc3Cl)c(Cl)cn2)CC1` [Compound 508, 4-(((5-chloro-6-(5-chloro-2-((trans-4-((2-methoxyethyl)amino)cyclohexyl)amino)pyridin-4-yl)pyrazin-2-yl)amino)methyl)tetrahydro-2H-pyran-4-carbonitrile] returned an IC50 of under 0.5 nM. Still for that read-out and setting: the value for `CC1(C)CN([C@H]2CC[C@H](Nc3cc(-c4cccc(NCC5(C#N)CCOCC5)n4)c(Cl)cn3)CC2)CCO1` [Compound 416, 4-(((5′-chloro-2′-((trans-4-(2,2-dimethylmorpholino)cyclohexyl)amino)-[2,4′-bipyridin]-6-yl)amino)methyl)tetrahydro-2H-pyran-4-carbonitrile] was 21 nM; that for `N#CC1(CNc2cccc(-c3cc(N[C@H]4CC[C@H](N5CCCC5)CC4)ncc3Cl)n2)CCOCC1` [Compound 434, 4-(((5′-chloro-2′-((trans-4-(pyrrolidin-1-yl)cydohexyl)amino)-[2,4′-bipyridin]-6-yl)amino)methyl)tetrahydro-2H-pyran-4-carbonitrile] was at most 0.5 nM.
